Data from patent EP0147851B1, “Water soluble forms of polyene antibiotics, and process for preparing them” (priority 1983, dated 1985).
Like-named read-outs stand apart in the source and are kept apart here.

Assays:
[1] = Solubility of Nystatin in aqueous γ-CD solutions (spectrophotometric); type: physicochemical; conditions: for Nystatinkonzentration: 37 °C, 10 min schütteln
Description: Ähnlich wie im Falle des Flavofungins wurde auch für Nystatin die Löslichkeit in γ-CD-Lösungen unterschiedlicher Konzentration ermittelt. Die verwendeten wäßrigen γ-CD-Lösungen hatten Konzentrationen von 0, 1, 2,5, 4, 5, 6, 7, 8, 9, 10 und 15 %. Pro ml wurden 20 mg Nystatin zu gesetzt. Die Lösungen wurden bei 37 °C 10 Minuten lang geschüttelt, dann wurde ihr Nystatingehalt spektrophotometrisch bestimmt. Ähnlich wie bei Flavofungin wurde gefunden, daß die Löslichkeit des Nystatins in wäßrigen γ-CD-Lösungen ansteigt und in 5 %iger γ-CD-Lösung etwa das 25fache, in 10 %iger γ-CD-Lösung etwa das 40fache der ursprünglichen Wasserlöslichkeit beträgt. Die Meßergebnisse sind in der Tabelle 2 zusammengestellt.
Die aus dem anfänglich linearen Abschnitt der bei 37 °C aufgenommen Löslichkeitsisotherme berechnete scheinbare Stabilitätskonstante des Komplexes beträgt etwa 500.

Candida albicans = assay: Biological potency of Nystatin, agar diffusion method; type: cell-based
Excerpt: Die vorhergehenden Beispiele beweisen, daß die Polyenantibiotika mit γ-Cyclodextrin Einschlußkomplexe bilden und dadurch ihre Stabilität und Wasserlöslichkeit bedeutend steigt. Entscheidend ist jedoch, ob auch die antifungale Wirkung geblieben ist. Um diese Frage zu beantworten, wurde die antifungale Wirkung der auf unterschiedliche Weise hergestellten Komplexe sowohl sofort nach der Herstellung wie auch nach Lagerung unter Bedingungen, unter denen der nicht durch Komplexbildung geschützte Wirkstoff bereits beträchtliche Aktivitätseinbußen erleidet, untersucht. • a) Flavofungin-γ-Cyclodextrin-Komplex Die antifungale Wirkung der wäßrigen Lösung dieses Komplexes wurde an 6 Spaltpilzen und 13 Fadenpilzen untersucht. Die Ergebnisse sind in der Tabelle 7 zusammengefaßt. Auf Flavofungin bezogen war die minimale Hemmkonzentration in jedem Falle 10-25 µg/ml, was der Wirksamkeit des nicht komplexgebundenen Wirkstoffes entspricht. Es ist besonders bemerkenswert, daß die Substanz auch gegen phytopathogene Fusarien wirkt, d.h. eine Anwendung gegen pilzliche Pflanzenschädlinge begründet ist. Der komplexgebundene Wirkstoff wirkt in der gleichen Konzentration wie Flavofungin. Die Untersuchungenwurden mit der Agardiffusionsmethode vorgenommen. Der Komplex hat den Vorteil, daß zum Bereiten der Lösungen keine organischen Lösungsmittel (DMF bzw. DMSO) erforderlich sind. […]

Weibliche CFY-Ratten = assay: Mortality after subcutaneous administration in rats; type: in vivo; conditions: subcutan, 150 mg/kg, observation one week
Excerpt: (§1) • a) Die Resorption von Nystatin aus per os verabreichtem Nystatin-γ-CD-Komplex Die Resorption des Wirkstoffes wurde an Mäusen, an einem durch intravenöse Applikation einer Suspension von Candida albicans hervorgerufenen Sepsismodell untersucht. Die Sepsis verursachte innerhalb von 2-3 Tagen 100 %ige Mortalität. Den Versuchstieren wurde per os gemäß Beispiel 3 hergestellte, 8 % Nystatin enthaltende Komplex verabreicht. In einem Parallelversuch wurde Nystatin intravenös appliziert. Für beide Gruppen wurde die auf die unbehandelte Kontrolle bezogene Verlängerung der Überlebensdauer ermittelt. [formula] Wenn man diejenigen in Form des Komplexes per os verabreichten Nystatindosen mit denjenigen i.v. applizierten Nystatindosen vergleicht, die eine etwa gleiche Verlängerung der Überlebensdauer bewirkten (Tabelle 9, letzte Spalte),so läßt sich errechnen, daß aus dem Komplex durchschnittlich 6,2 % des Wirkstoffes in die Blutbahn gelangten. Bei den höchsten Dosen (i.v. 1,56 mg/kg, p.o. 25 mg/kg) ist das Zurückfallen der Überlebensdauer bereits auf die schwache Toxizität des Nystatins zurückzuführen. • b) Die Resorption von Nystatin aus subcutan appliziertem Nystatin-γ-CD-Komplex Weibliche CFY-Ratten eines durchschnittlichen Gewichtes von 180 g wurden mit Nystatin, mit Nystatin-γ-CD-Komplex (Wirkstoffgehalt9 8 %) beziehungsweise mit γ-CD behandelt. […]

[2] = Blood level after subcutaneous administration (UV spectrum of serum); type: in vivo, CFY-Ratten; conditions: subcutan, 200 mg/kg
Excerpt: as §1

[3] = tested on: aus menschlichem Blut hergestellten Suspensionen roter Blutkörperchen
Excerpt: Dyn. 6, 408-414 [1983]) untersucht. Die Ergebnisse werden in Form der zu 50 %iger Hämolyse gehörenden Konzentrationen (EH₅₀) angegeben. […] Auch die hämolytische Wirkung einer der im Komplex gebundenen γ-CD-Menge entsprechenden Menge γ-Cyclodextrin wurde untersucht.

[4] = per os; cited from earlier work
[5] = tested on: aus menschlichem Blut hergestellten Suspensionen roter Blutkörperchen; conditions: literature value; cited from earlier work

With `C[C@@H]1[C@H](O)[C@@H](C)/C=C/C=C/CC/C=C/C=C/C=C/C=C/C(O[C@H]2O[C@H](C)[C@@H](O)[C@H](N)[C@@H]2O)CC2O[C@](O)(CC(O)C(O)CCC(O)CC(O)CC(O)CC(=O)O[C@H]1C)CC(O)C2C(=O)O` (stereo partly drawn) [Nystatin] the “Löslichkeit relative to ursprüngliche Wasserlöslichkeit” value ([1]; 5 %ige γ-CD-Lösung) was about 25 fache, the “Löslichkeit relative to ursprüngliche Wasserlöslichkeit” value ([1]; 10 %ige γ-CD-Lösung) was about 40 fache and the Nystatinkonzentration ([1]; γ-CD-Konzentration 0 %) was 0,20 mg/ml. The Nystatinkonzentration ([1]; γ-CD-Konzentration 1 %) was 1,30 mg/ml, the Nystatinkonzentration ([1]; γ-CD-Konzentration 2,5 %) was 2,36 mg/ml and the Nystatinkonzentration ([1]; γ-CD-Konzentration 4 %) was 3,95 mg/ml. The Nystatinkonzentration ([1]; γ-CD-Konzentration 5 %) was 4,70 mg/ml, the Nystatinkonzentration ([1]; γ-CD-Konzentration 6 %) was 5,50 mg/ml and the Nystatinkonzentration ([1]; γ-CD-Konzentration 7 %) was 6,30 mg/ml. For the same molecule, the Nystatinkonzentration ([1]; γ-CD-Konzentration 8 %) was 7,20 mg/ml, the Nystatinkonzentration ([1]; γ-CD-Konzentration 9 %) was 8,10 mg/ml and the Nystatinkonzentration ([1]; γ-CD-Konzentration 10 %) was 8,95 mg/ml. The Nystatinkonzentration ([1]; γ-CD-Konzentration 15 %) was 8,20 mg/ml, the “biologische Aktivität” value (Candida albicans) was 5033 E/mg and the “biologische Aktivität after treatment without γ-CD” value (Candida albicans; base substance treated as in Beispiel 5 (40 °C, 24 Stunden in water, lyophilised) without γ-CD) was “wesentlich schlechter”. For the same molecule, the “Mortalität (animals that died)” value (Weibliche CFY-Ratten) was “kein einziges”, the Blutspiegel [2] was “nichts nachzuweisen” and the Hämolyse ([3]; 70 µg/ml Nystatin) was 70%. The “EH₅₀ (concentration for 50 % haemolysis)” value ([3]; complexes berechnet als Wirkstoff) was 57 µg/mL, the Blutspiegel [4] was “überhaupt nicht meßbar” and the “EH₅₀ (concentration for 50 % haemolysis)” value [5] was 50 µg/mL.
